The values below are quoted from earlier work in patent US20140134224A1, “STABLE COMPOSITION OF HOCI, A PROCESS FOR ITS PRODUCTION AND USES THEREOF” (priority 2011, published 2014).

Like-named read-outs stand apart in the source and are kept apart here.

For one data set, the system named is B. metiens spores. The conditions noted are these: 25 ppm available chlorine.
The conditions of data set [1]: unstabilised HOCl solutions of the prior art.
The conditions of data set [2]: Kapoor 1968.

As to `OCl` [HOCl, Hypochlorous (or hydrochlorous) acid], the “time taken to produce a 99% kill of spores” value in the data set with B. metiens spores (pH 6) is 2.5 min; in the data set with B. metiens spores (pH 7), 3.6 min; with B. metiens spores (pH 8), 5 min; in the data set on B. metiens spores (pH 9) it was 19.5 min; with B. metiens spores (pH 9.35), 35.5 min; in the data set with B. metiens spores (pH 10) it was 131 min. Further, the “time taken to produce a 99% kill of spores” value in the data set with B. metiens spores (pH 12.86) is 465 min. Further, the half-life result in data set [1] is reported as “around 48 hours”.
For the compound `OCl` [hypochlorite ion, hypochlorite], the “times less effective than hypochlorous acid as a disinfectant” value in data set [2] is given as “up to 120 times”.
